Measured values published in US20100324072A1, “PYRROLOPYRIDINE DERIVATIVES AND THEIR USE AS BACE INHIBITORS” (ASTRAZENECA AB, priority 2007, published 2010).

Molecular target: T1, human β-Secretase (Homo sapiens, UniProt P56817)
T1 construct: The soluble part of the human β-Secretase (AA 1-AA 460) was cloned; Fc domain of IgG1 (C); made in house
Assay: TR-FRET assay (β-secretase enzyme cleavage of (Europium)CEVNLDAEFK(Qsy7) substrate)
Format: biochemical
Settings: sBACE-Fc 2.7 μg/ml, substrate 100 nM, pH 4.5, 15 min at RT
Method: The enzyme used in the IGEN Cleavage-, Fluorescent-, TR-FRET- and BiaCore assays is described as follows:
The soluble part of the human β-Secretase (AA 1-AA 460) was cloned into the ASP2-Fc10-1-IRES-GFP-neoK mammalian expression vector. The gene was fused to the Fc domain of IgG1 (affinity tag) and stably cloned into HEK 293 cells. Purified sBACE-Fc is stored in Tris buffer, pH 9.2 and has a purity of 95%.
Enzyme was diluted to 6 μg/mL and the substrate (Europium)CEVNLDAEFK(Qsy7) to 200 nM in reaction buffer (NaAcetate, chaps, triton x-100, EDTA pH 4.5). Compounds were diluted to the desired concentration in dimethyl sulfoxide (final dimethyl sulfoxide concentration in assay is 5%). The assay was done in a Costar 384 well round bottom, low volume, non-binding surface plate (Corning #3676). Enzyme (9 μL) and 1 μL of compound in dimethyl sulfoxide was added to the plate, mixed and pre-incubated for 10 min. Substrate (10 μL) was added and the reaction proceeded in the dark for 15 min at RT. The reaction was stopped with the addition of 7 μl, NaAcetate, pH 9. The fluorescence of the product was measured on a Victor II plate reader with an excitation wavelength of 340 nm and an emission wavelength of 615 nm. The final concentration of the enzyme was 2.7 μg/ml and the final concentration of the substrate was 100 nM (Km of 290 nM). […]

T1 sequence (P56817 22-460): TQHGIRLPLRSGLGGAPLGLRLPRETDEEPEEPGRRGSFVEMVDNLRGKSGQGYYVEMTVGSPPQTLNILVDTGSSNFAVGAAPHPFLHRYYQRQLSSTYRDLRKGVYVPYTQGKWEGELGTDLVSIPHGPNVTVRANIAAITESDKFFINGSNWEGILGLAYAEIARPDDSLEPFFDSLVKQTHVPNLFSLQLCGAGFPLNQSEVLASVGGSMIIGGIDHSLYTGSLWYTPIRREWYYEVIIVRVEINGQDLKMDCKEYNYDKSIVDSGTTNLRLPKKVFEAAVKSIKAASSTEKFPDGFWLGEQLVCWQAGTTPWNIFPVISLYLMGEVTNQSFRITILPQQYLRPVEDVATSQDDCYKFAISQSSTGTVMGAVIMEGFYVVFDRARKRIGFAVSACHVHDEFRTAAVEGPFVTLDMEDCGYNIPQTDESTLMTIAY

COc1cccc(-c2cccc(C3(c4ccncc4)N=C(N)c4cccnc43)c2)c1F (stereo not shown) [Example 23, 7-(2′-Fluoro-3′-methoxybiphenyl-3-yl)-7-pyridin-4-yl-7H-pyrrolo[3,4-b]pyridin-5-amine]
Ki: 88 nM
